As usually defined, the melting point is the temperature, or range, at which the solid turns liquid.

Each structure is given as a SMILES string.

For `O=[N+]([O-])c1cc(Cl)cc(C(O)c2cc(Cl)cc([N+](=O)[O-])c2O)c1O`, the melting point worked out at 180 °C.
The value for `CC(C)c1cc2c(=O)n3cc(C(N)=O)ccc3nc2s1` was 280 to 282 °C.
The result for `Cc1cc(Cn2nc(-c3ccccc3)oc2=O)cc(C(C)(C)C)c1O` reads 152 °C; that for `O=C(Cc1ccc(Cl)cc1Cl)Nc1ccccc1`, 146 °C.
The result for `O=c1c(CO)cnc2c3ccccc3ccn12` reads 198 °C.
With `CC1(C)OC2C=CC(=O)C2O1` (single isomer, unassigned; (+)), the melting point was 68 to 69 °C.
The value for `COc1ccc(C2CCCCC2)cc1-c1csc(NC(=O)N2CCN(C[C@@H]3CCCN(CCC(=O)O)C3)CC2)n1` was 144 °C; that for `CC(=O)OC1CSC(Oc2cncc(-c3cncnc3)c2)C(OC(C)=O)C1OC(C)=O` (stereo not given) was 213 to 217 °C.
The result for `COc1ccc2nc(COc3ccc(CC(C(N)=O)S(C)(=O)=O)cc3)n(C)c2c1` (stereo not given) reads 233 to 236 °C; that for `COCCOc1cc(Cc2cnc(N)nc2N)cc2c1NCCC2`, 149 to 151 °C.
The result for `CNc1nc2ccc(C3=NNC(=O)NC3C)cc2s1` (stereo not given) reads 290 to 295 °C.
Turning to `Cc1nc2c(OCc3c(Cl)cc(C(O)c4ccccc4)cc3Cl)cccn2c1Br` (stereo not given), the melting point fell in the range of 178 to 179 °C.
`OCc1cn(-c2ccc3ncccc3c2)cn1` had a melting point of 183 to 187 °C.
`Cc1nn(-c2ccccn2)c2ncc(C(=O)NCc3ccccc3)c(O)c12`: the melting point was > 300 °C.
The value for `CCc1cc(OC)c(OC)cc1Cc1cnc(N)nc1N` was 206 to 207 °C; that for `Cc1ccc(-c2c(O)nn(CCO[Si](C)(C)C(C)(C)C)c2N)cc1` was 194 to 195 °C; that for `CC(C)c1cccc(C(C)C)c1NC(=O)CN1CCN(CCSc2nc3cccc(CO)c3o2)CC1` was 138 to 139 °C.
The result for `Cc1cccc2c1C(=O)N1CC[C@H]1c1c(C(=O)OC3CCCCC3)ncn1-2` reads 199 to 200 °C.
The value for `CO/N=C(\C)c1ccc(Nc2c3ccccc3nc3occc23)cc1` was 167 to 168 °C.
In the case of `CC(C)c1cccc(C(C)C)c1NC(=O)Nc1nnn(Cc2ccccc2)n1`, the melting point lay within 180 to 181 °C.
The result for `COCc1nc2c(OC)ccc(C(O)(Cc3ccncc3)Cc3ccncc3)c2[nH]1` reads 210 °C; that for `CCCc1c(OCCCCCOc2ccc(Cl)cc2CCC(=O)O)ccc2c1OCCC2=O`, 101 to 103 °C; that for `COc1ccc2c3c(c(=O)oc2c1)CN(Cc1ccc(Cl)cc1)CC3`, 140 to 142 °C.
The result for `COc1cc2c(cc1C(F)(F)F)N(C(=O)Nc1ccc3c(ccn3Cc3ccncc3)c1)CC2` reads 215 to 218 °C.
The value for `CCOC(=O)CCCCC1CC(n2c3ccccc3c3ccccc32)c2ccccc2N1C(=O)c1ccc(OC)c(OC)c1` (stereo not given) was 195 to 196 °C.
For `COc1ccc(-n2nc(OC(C)C)cc2-c2ccc(OCCNC(N)=O)cc2)cc1`, the melting point was 139 to 140 °C.
The result for `CCC(CC)n1cc(C)nc(Nc2c(C)cc(C)cc2C)c1=O` reads 109 °C; that for `CCOC(=O)C(=O)Nc1cccc(F)c1O`, 168 °C; that for `CNC(=O)c1cc(F)c(Cl)cc1Oc1cccc(OC)c1C`, 127 to 128 °C.
The value for `CCOC(=O)C1=C(CC)Nc2n[nH]cc2C1c1ccccc1OC` (stereo not given) was 169 °C; that for `COc1ccc(C2SCCS2)cc1` was 62 to 63 °C.
The result for `CS(=O)CCC(NS(=O)(=O)c1ccc2c(c1)Sc1ccccc1O2)C(=O)O` (stereo not given) reads 160 to 170 °C; that for `OC(CCN1CC=C(c2ccccc2)CC1)c1ccc(Cl)cc1` (stereo not given), 141 °C; that for `COc1ccc(-c2c(C#N)c(CNS(=O)(=O)c3c(F)cccc3F)nn2-c2ccc(Cl)cc2Cl)cc1`, 170 °C.
Compound `Cn1cc(C2=C(c3c4n(c5ccccc35)CCC(CO)C4)C(=O)NC2=O)c2ccccc21` (stereo not given) came in with a melting point of 262 to 263 °C.
With `CN(C)CCCc1cccc(OCCCNc2nc(N)nn2C)c1`, the melting point was 64 to 65.5 °C.
The value for `CCCCC(O)c1cccc(NC(=O)OCc2ccccc2)c1` (stereo not given) was 83 to 86 °C; that for `COc1cc2c(cc1OC)C(O)N(CCc1ccccc1)C2=O` (stereo not given) was 130 °C; that for `N#Cc1ccc(CN2C(=O)C3(COc4cc5c(cc43)OCCO5)c3ccccc32)cc1` (stereo not given) was 69 to 72 °C.
With `CNC(=O)c1ccc(Cl)cc1`, the melting point was 158 to 161 °C.
In turn, `Cc1ccc(-c2cc(C)c(C(=O)N=C(N)N)cc2S(C)(=O)=O)cc1` gave a melting point of 222 to 224 °C.
`CCCCOCCOc1ccc(-c2ccc3c(c2)C=C(C(=O)Nc2ccc(S(=O)Cc4cncn4CCC)cc2)CCCN3CC(C)C)cc1` (single isomer, unassigned; (-)) gave a melting point of 120 to 122 °C.
The result for `O=Cc1cc([N+](=O)[O-])ccc1Sc1ccccc1` reads 96 to 100 °C; that for `COc1cc(C(=O)N2CCC(CCN3CCC(C(=O)c4nc5ccccc5[nH]4)CC3)(c3ccccc3)C2)cc(OC)c1OC` (stereo not given), 108 to 111 °C.
The value for `CC(=O)c1cccc(NC(=O)NCC(=O)N(CC(=O)N(C)c2ccccc2)c2ccccc2)c1` was 170 °C.
The result for `CCC1N=C(c2ccccc2Cl)c2cc(CC(=O)OC)sc2NC1=S` (stereo not given) reads 199 to 200 °C.
Compound `C[C@H](Nc1c(-c2c(F)cc(OCCCN(C)C)cc2F)c(Br)nc2ncnn12)C(F)(F)F` registered a melting point of 40 to 42 °C.
On to `Cc1cccc(C(=O)Nc2ccc(C(=O)N3Cc4cccn4Cc4ccccc43)cc2)c1C`, for which the melting point was 168 to 170 °C.
The result for `Clc1ccc2ccc(/C=C/c3cccc(CN4CCc5cccc(CCc6nnn[nH]6)c54)c3)nc2c1` reads 141 to 144 °C.
The value for `CN(C)S(=O)(=O)NC1CCC(CCN2CCC(c3cccc4c3CCO4)CC2)CC1` (stereo not given) was 122 °C.
The result for `O=C(CC1(S(=O)c2ccc(Oc3ccc(F)cc3)cc2)CCOCC1)NO` (stereo not given) reads 120 °C; that for `Clc1ccc(C2CN3CCN=C3c3ccccc32)cc1` (single isomer, unassigned; (-)), 184 °C.
In the case of `CCN1C(c2ccccc2C(=O)c2ccccc2)=N[C@@H]2CCCC[C@H]21` (relative stereo), the melting point was 80 to 83 °C.
The result for `O=C(OCc1ccccc1)[C@@H]1CCCN1C(=O)CNC1Cc2ccccc2C1` reads 96 to 98 °C; that for `CC(C)(CC(O)(Cn1ccc(=O)c2sccc21)C(F)(F)F)c1cc(S(C)(=O)=O)cc2c1OCC2` (stereo not given), 163 to 165 °C; that for `CCSc1c(C#N)nn(-c2c(Cl)cc(C(F)(F)F)cc2Cl)c1Br`, 134 to 140 °C.
The result for `CCCN(CCC)C(=O)c1n[nH]c2c(=O)[nH]c3cc(Cl)ccc3c(=O)c12` reads 270 °C; that for `FC(F)(F)c1ccc(-c2cc(C(F)(F)F)n3ncc(-c4ccncc4)c3n2)cc1C(F)(F)F`, 209 °C.
The result for `CCCCCCCCCCCCCCCCCCSP(=S)(C1CCCCC1)C1CCCCC1` reads 67 to 69 °C; that for `CCC1Cc2c(Br)cccc2C1O[Si](C)(C)C` (stereo not given), 133 to 135 °C.
`Cc1cc(S(N)(=O)=O)ccc1-n1nc(C(F)(F)F)cc1-c1ccc(-c2ccco2)cc1` registered a melting point of 87 to 89 °C.
The value for `CC(=O)Nc1ccc(Cc2nc3cc(CC4SC(=O)NC4=O)ccc3o2)cc1` (stereo not given) was 233 to 236 °C; that for `CC(C)c1cc(C(=O)Nc2cc(F)c(C(=O)O)c(F)c2)sc1C(C)C` was 218 to 219 °C.
The value for `O=C(O)c1cc[nH]c1Sc1ccc(Cl)cc1Cl` was 160 to 164 °C.
The value for `Cn1c2ccc(-c3nnn[nH]3)cc2c(=O)c2cccnc21` was 321 °C.
The compound `CCCS(=O)(=O)c1cc(C(=O)CCC(=O)c2cc(OC)c(OC)c(OC)c2)cc(OC)c1OCc1ccccc1` gave a melting point of 148 to 150 °C.
The result for `CCCCOc1ccc(C2=CC=CN3CCS(=O)(=O)N=C23)cc1` reads 230 to 232 °C.
The result for `CC(=O)OCc1nn(C(C)=O)c2cccc(OCc3ccccc3)c12` reads 99 to 100 °C; that for `CCOC(=O)CNc1nc2ccccc2s1`, 91 to 97 °C.
With `COc1ccc(C(=O)c2ccon2)cc1`, the melting point lay within 71 to 73 °C.
The value for `O=C(N[C@H]1CC[C@H](CCN2CCN(c3nccc4c3CCO4)CC2)CC1)c1ccc(-c2cccnc2)cc1` was 218 °C; that for `Cc1nc(N2CCN(Cc3ccccc3)C2=N)sc1C(=O)NCc1ccccc1` was 125 to 126 °C; that for `CCOC(=O)c1cc(SC#N)c(Br)cc1N` was 149 to 150 °C.
`CC(C)CCCC(C)NC(=O)Oc1ccc(Oc2ccccc2)cc1F` (stereo not given): the melting point fell in the range of 37 to 41 °C.
The value for `CCOc1ccc(-c2nc(OC)ccc2N2CCN(c3ccc(OC)cc3)CC2)cc1` was 125 to 128 °C; that for `O=C1[C@H]2CCC[C@H]2N(C(=O)CBr)c2ccccc2N1Cc1ccccc1` (relative stereo) was 177 to 179 °C.
The value for `CC1(C)CCCN(C(=O)[C@H]2C[C@H](S(=O)(=O)c3ccccc3)[C@@H](c3ccccc3F)N2)C1` (racemic) was 210 °C; that for `CC(=O)CSc1cc(C(C)(C)C)c(O)c(C(C)(C)C)c1` was 105 to 106 °C.
For the compound `CCCc1c(OCCCCCOc2ccc(C(=O)CCC(=O)O)cc2CCC(=O)O)ccc2c1OCCC2=O`, the melting point lay in the range of 182 to 184 °C.
The result for `CC(Cn1cc(Cl)c2ccccc21)N(O)C(N)=O` (stereo not given) reads 168 to 171 °C.
For `CC(C)(C)n1nc(Cc2ccccc2)c2c(N)nc(-c3ccncc3)nc21`, the melting point fell in the range of 188 to 189 °C.
As for `COC(=O)c1cc(Cl)c(NC(C)=O)c([N+](=O)[O-])c1O`, the melting point lay within 166 to 169 °C.
The result for `O=C1CCC(N2C(=O)c3cccc(NC(=O)c4cccc([N+](=O)[O-])c4)c3C2=O)C(=O)N1` (stereo not given) reads 245 to 247 °C; that for `CCCCc1nn(Cc2ccc(C(=O)O)cc2)c2ccccc2c1=O`, 220 °C; that for `CCc1c(Oc2ncc(C(F)(F)F)cc2Cl)n[nH]c1C`, 74 to 75 °C.

These data come from a melting point compilation (Tetko et al.; mined from patent text by program, amines drawn as free bases though some values may be those of a salt).
